{"source": "patent US9670217B2", "about": "“Process for preparing chlorins and their pharmaceutical uses” (UNIVERSIDADE DE COIMBRA, priority 2008, dated 2017)", "key": {"[1]": {"test_system": "PC-3 (human prostate carcinoma)", "assay": "Cell photosensitization, 748 nm diode laser, resazurin", "format": "cell-based", "settings": "6 J/cm^2 diode laser irradiation at 28.5 mW"}, "[2]": {"test_system": "A-549 (human non-small cell lung cancer)", "assay": "Cytotoxicity in the dark, resazurin assay", "format": "cell-based", "design": "unit not given here", "settings": "A-549, dark", "description": "The cell lines employed in laser irradiation were the HT-29 (human colon carcinoma), PC-3 (human prostate carcinoma), SW2 (human small cell lung cancer), A-549 (human non-small cell lung cancer). S91/I3 (mouse melanoma) and CT26 (mouse colon carcinoma). They were used both for cytotoxicity and photocytotoxicity experiments. PC-3. SW2 and S91113 cells were cultured in RPMI-1640 medium (Sigma-Aldrich, Steinheim, Germany) and HT-29, A-549 and CT26 cells were cultured in Dulbecco's Modified Eagle Medium (DMEM) (Cambrex Bioscience, Verviers, Belgium). […] For the in vitro studies, cells at 85-90% confluence, were detached with Trypsin-Versene-EDTA solution (Cambrex Bioscience, Verviers, Belgium), counted and seeded in flat-bottom 96-well plates at the desired densities.\nCell viability assay. In the end of the experiences cell viability was evaluated by the resazurin reduction assay. […] The absorbance values of each well were measured at 540 nm and 630 nm using a microplate reader Multiskan Ex (Thermo-Electron Corporation, Vartaa, Finland).\nCytotoxicity. […] After the incubation the cell viability was evaluated. […] Cytotoxicity was quantified by expressing cell death relatively to untreated cells (% of control cells). […]"}, "[3]": {"assay": "Absorption spectra (λmax, molar absorption coefficient)", "format": "physicochemical", "settings": "ethanol solutions", "description": "Absorption spectra were recorded on a Shimadzu UV-2100 spectrophotometer or with a Carry 50 Biospectrophotometer (Varian, Mulgrave, USA). Fluorescence spectra were measured with a Spex Fluorolog 3 spectrophotometer, with correction for the wavelength dependence system (RCA C31034 photomultiplier), or with a PerkinElmer LS 50 spectrofluorimeter. Transient absorption spectra were measured with an Applied Photophysics LKS 60 nanosecond laser flash photolysis kinetic spectrometer, using the third harmonic of a Spectra-Physics Quanta Ray GCR 130-01 Nd/YAG laser for excitation, a Hamamatsu 1P28 photomultiplier and a Hewlett-Packard Infinium oscilloscope (1 GS/s). Flash photolysis measurements were made in the presence of air and in argon saturated solutions. Photoacoustic calorimetry employed the same Nd/YAG laser, a home-made front-face photoacoustic cell with a 2.25 MHz Panametrics transducer (model 5676) and a Tektronix DSA 601 transient recorder. Room-temperature singlet-oxygen phosphorescence was measured at 1270 nm with a Hamamatsu R5509-42 photomultiplier, cooled to 193 K in a liquid nitrogen chamber (Products for Research model PC176TSCE005), following laser excitation of aerated solutions at 355 nm, using an adapted Applied Photophysics spectrometer. Singlet oxygen emission at 1270 nm was also monitored with a liquid nitrogen-cooled germanium detector (North Coast) coupled to a Tectronix Digitizing scope (TDS 520B), following sample excitation with 5 ns laser pulses of the third harmonic (355 nm) generated by a Q-switched Nd:YAG laser (Continuum Surelite II).\nThis is indicative of little aggregation between the molecules, which exist mostly as monomers at these concentrations in the solvents studied. Table 1 presents typical red and infrared molar absorption coefficients (εmax) and wavelength maxima. The same table also presents representative fluorescence quantum yields (ΦF) of Luzitins. The fluorescence quantum yields decrease of these molecules decrease in the presence of chlorine substituents, a fingerprint of the heavy atom effect expected for such molecules."}, "[4]": {"assay": "Photobleaching under 748 nm diode laser irradiation", "format": "physicochemical", "settings": "PBS:methanol; 100 mW laser irradiation at 748 nm", "text": "The irradiation of bacteriochlorins in the photobleaching experiments employed the 748 nm Lynx diode laser. For animal studies we employed a costumer-made Hamamatsu diode laser, type LA0873. S/N M070301, which delivered 140 mW at 748 nm. This diode laser was controlled by a ThorLabs 500 mA ACC/APC Laser Diode Controller and in-house electronics. The laser energies of this and the other higher-energy lasers employed in this work were regularly checked with an Ophir model AN/2E laser power meter.\nPhotobleaching experiments were conducted in PBS. PBS:methanol (50:50) and methanol solutions. The solutions were irradiated in a cuvette with an optical path of 1 cm and the Lynx diode laser. The initial absorption of the solutions was ca. 0.8. The mechanism of photobleaching was assessed with the irradiation of the sensitizer using the Hamamatsu diode laser at 80 mW. The sensitizer was irradiated in PBS and in the presence of ascorbic acid or azide.\nThe chemical stability of the compounds was studied exposing them to light, air, and pH changes. The most significant degradation occurs for aerated solutions irradiated by light of the appropriate wavelength. In such circumstances the photobleaching of the compounds follows a first-order rate and is proportional to the energy of the incident laser light. In general, it was also observed that the photobleaching rate increases with the amount of water present in the solution. Bennett reported the photoconversion of Foscan® (m-THPC) and of the analogous bacteriochlorin (m-THPB) in PBS:methanol (50:50). Scherz reported the photoconversion of Tookad® in acetone and Triton-X:PBS [3]. For the purpose of comparing the photostability of Luzitins with that of Foscan® and Tookad®, we present in Table 2 the half-lives (t1/2) of representative drugs described herein, together with those of Foscan and Tookad® normalized for a laser power of 100 mW.\nLuzitin-FMet was dissolved in PBS:methanol (2:3), transferred to a 1 cm quartz cell and its absorption spectrum was registered, FIG. 6. The quartz cell was then placed in the beam of the 748 nm Lynx diode laser, previously unfocused to have a beam diameter coincident with the window of the quartz cell. The laser power measured under these conditions was 28.8 mW. Every 5 minutes the irradiation was interrupted and a new absorption spectrum was registered. This procedure was followed for 65 minutes. The photobleaching follows the kinetics of a first-order reaction in the time window of the experiment. […] Whereas the bacteriochlorin peak at 743 nm is reduced from an absorbance of 1.128 to 0.337, the absorption of the chlorin only increases from 0.114 to 0.151. Taking into consideration the molar absorption coefficients of the compounds at these wavelengths, it is clear that whereas 70% of the bacteriochlorin is destroyed during the irradiation, only a few percent of chlorin are formed.\nThe half-lives of other bacteriochlorins normalized 100 mW laser irradiation at 748 nm are presented in […], together with the literature data for the photodegradation of Foscan® and Tookad® normalized for the same light intensity. It was also observed that the half-live to Luzitin-Cl is increased by a factor of 30 when the PBS solution of the photosensitizer is saturated with Argon, which reduces the oxygen concentration in the solution."}, "[5]": {"test_system": "CT26 (murine colon carcinoma)", "assay": "Cell photosensitization, 748 nm diode laser, resazurin", "format": "cell-based, mouse", "settings": "6 J/cm^2 diode laser irradiation at 28.5 mW"}, "[6]": {"test_system": "A-549 (human non-small cell lung carcinoma)", "assay": "Cell photosensitization, 748 nm diode laser, resazurin", "format": "cell-based"}, "[7]": {"assay": "n-octanol:water partition coefficient (shake-flask)", "format": "physicochemical", "description": "The n-octanol:water partition coefficients (CP) were measured using a minor modification of the shake-flask method described by some of us in the literature. The modification concerned the excitation of the absorption band ca 500 nm and the collection of the fluorescence in the red/IR region."}}, "data": [{"smiles": "CNS(=O)(=O)c1ccc(F)c(-c2c3nc(c(-c4c(F)ccc(S(=O)(=O)NC)c4F)c4ccc([nH]4)c(-c4c(F)ccc(S(=O)(=O)NC)c4F)c4nc(c(-c5c(F)ccc(S(=O)(=O)NC)c5F)c5ccc2[nH]5)CC4)CC3)c1F", "note": "[Luzitin-F2Met, 5,10,15,20-tetrakis(2,6-fluoro-3-N-methylsulfamoylphenyl)bacteriochlorin]", "values": [{"measurement": "concentration of sensitizer required to kill 90% of cells (LD90)", "setting": "[1]", "result": 0.5, "unit": "µM"}, {"measurement": "highest concentration that causes relatively no effect in viability in the dark", "setting": "[2]", "result": 50}, {"measurement": "λmax", "setting": "[3]", "result": 742.5, "unit": "nm"}, {"measurement": "εmax", "setting": "[3]; corrected for the chlorin content", "result": "78,000^d) M^−1 cm^−1"}, {"measurement": "t1/2 (photobleaching half-life)", "setting": "[4]", "result": "6,480 sec"}, {"measurement": "concentration of sensitizer required to kill 90% of cells (LD90)", "setting": "[5]", "result": 1.0, "unit": "µM"}, {"measurement": "cell kill", "setting": "[6]; 0.5 μM, laser light dose 6 J/cm^2, incubation 18 hours", "result": 100, "unit": "%"}, {"measurement": "concentration of sensitizer required to kill 90% of cells (LD90)", "setting": "[6]; 6 J/cm^2 diode laser irradiation at 28.5 mW", "result": 0.5, "unit": "µM"}, {"measurement": "log KOW (n-octanol:water partition coefficient)", "setting": "[7]", "result": 2.7}]}]}
